Test results published in PMC6327263, “Evaluation of Novel 3-Hydroxyflavone Analogues as HDAC Inhibitors against Colorectal Cancer” (Advances in Pharmacological Sciences, 2018).

Assays:
acetyl histone H3K9 = experiment: Western blotting, acetyl histone H3K9 expression; format: cell-based, human; settings: HCT116 cells, 24 h, compared to normal control
Method: After various treatments for 24 h, cells were lysed, and protein quantification of the lysates was estimated using the BCA™ kit (Thermo Fisher Scientific Inc., Waltham, MA, USA). Proteins samples (30 µg) were resolved on a 10% SDS-PAGE and transferred onto a PVDF membrane and blocked with 5% nonfat milk in TBST (tris-buffered saline with Tween-20) buffer for 1 h followed by washing in TBST buffer. The membrane was then probed with primary antibodies (GAPDH, HDAC8, p21^Waf1/Cip1, and acetyl-histone H3[Ac-Lys^9]) and incubated overnight at 4°C. The membrane was washed with TBST buffer and incubated with horseradish peroxidase-conjugated secondary antibody for 1 h at room temperature. Signal was captured using SuperSignal™ West Pico Plus chemiluminescent substrate (Thermo Fischer Scientific Inc., Waltham, MA, USA) on gel documentation system (G : BOX Chemi XRQ, Syngene). The protein band densities were estimated using the software ImageJ (version 1.46r, NIH, Bethesda, MD, USA).

Wistar rats = format: in vivo; settings: 2000 mg/kg p.o., limit test, 14 days observation
Method: Animal care and handling were carried out according to the guidelines of the Committee for the Purpose of Control and Supervision of Experiments on Animals (CPCSEA), after seeking the approval of the research proposal by institutional animal ethics committee (IAEC) (IAEC/KMC/23/2015). Male Wistar rats inbred at the central animal research facility (CARF), Manipal academy of higher education (MAHE), was used in the present study. […] The animals were housed in sterile polypropylene cages containing sterile paddy husk and were provided with 12 h light and dark cycles.
The safe dose of the promising two analogues (QMJ-2 and QMJ-5) and quercetin were evaluated using Organization for Economic Cooperation and Development (OECD), 425 guidelines. Limit test was performed using 2000 mg/kg dose.

Row | Structure (SMILES) | expression of acetylated histone H3K9 (acetyl histone H3K9) | acute toxicity, tolerability (Wistar rats) | mortality (Wistar rats)
1 | Cc1ccc(-c2oc3cc(C)ccc3c(=O)c2O)cc1 [QMJ-5, 3-Hydroxy-7-methyl-2-(4-methylphenyl)-4H-1-benzopyran-4-one] | significant increase |  | 
2 | O=c1c(O)c(-c2ccc(O)c(O)c2)oc2cc(O)cc(O)c12 [Quercetin, quercetin, reference compound] |  | safe and well tolerated | no mortality
